How the values were obtained:
BChE = BChE (Rattus norvegicus, UniProt Q9JKC1); test: biochemical; parameters: species or system Sprague–Dawley rat; conditions: rat serum BChE, Mean ± SD, triplicate
[1] = pKa by pH-titration method; assay type: physicochemical; conditions: read-out: pKa
Method: pKa is determined by pH-titration method according to the report. The titration curve E vs. VT was recorded and pKa value was calculated.

AChE = AChE (Rattus norvegicus, UniProt P37136); test: biochemical; conditions: for Selectivity for AChE: IC50 (BChE)/IC50 (AChE); for IC50: rat brain AChE, Mean ± SD, triplicate
[2] = Log P by shake flask method; assay type: physicochemical; conditions: octanol / PBS pH = 7.4, shake flask
Method: Log P is defined as the logarithm of octanol–water partition coefficient. […] Ultraviolet spectrophotometry was applied to determine the concentration of compounds. Log p values were calculated based on the data in triplicate.

Sequence of BChE (Q9JKC1 24-597): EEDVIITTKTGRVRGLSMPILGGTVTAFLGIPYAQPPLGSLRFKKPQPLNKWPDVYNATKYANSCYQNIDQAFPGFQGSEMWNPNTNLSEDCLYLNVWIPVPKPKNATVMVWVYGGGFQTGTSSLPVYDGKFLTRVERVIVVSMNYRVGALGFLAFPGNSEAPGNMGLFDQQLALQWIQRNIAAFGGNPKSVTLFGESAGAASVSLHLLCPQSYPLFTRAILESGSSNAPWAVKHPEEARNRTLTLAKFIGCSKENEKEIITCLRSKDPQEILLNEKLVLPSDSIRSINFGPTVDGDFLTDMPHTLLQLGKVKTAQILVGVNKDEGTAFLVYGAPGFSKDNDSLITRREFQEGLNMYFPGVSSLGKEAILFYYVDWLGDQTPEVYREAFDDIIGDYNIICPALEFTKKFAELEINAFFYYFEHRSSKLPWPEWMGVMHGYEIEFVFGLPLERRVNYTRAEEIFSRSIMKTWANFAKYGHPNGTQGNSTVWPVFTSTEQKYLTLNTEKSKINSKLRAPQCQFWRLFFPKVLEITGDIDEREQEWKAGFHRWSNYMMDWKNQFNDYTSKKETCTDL
Sequence of AChE (P37136 32-614): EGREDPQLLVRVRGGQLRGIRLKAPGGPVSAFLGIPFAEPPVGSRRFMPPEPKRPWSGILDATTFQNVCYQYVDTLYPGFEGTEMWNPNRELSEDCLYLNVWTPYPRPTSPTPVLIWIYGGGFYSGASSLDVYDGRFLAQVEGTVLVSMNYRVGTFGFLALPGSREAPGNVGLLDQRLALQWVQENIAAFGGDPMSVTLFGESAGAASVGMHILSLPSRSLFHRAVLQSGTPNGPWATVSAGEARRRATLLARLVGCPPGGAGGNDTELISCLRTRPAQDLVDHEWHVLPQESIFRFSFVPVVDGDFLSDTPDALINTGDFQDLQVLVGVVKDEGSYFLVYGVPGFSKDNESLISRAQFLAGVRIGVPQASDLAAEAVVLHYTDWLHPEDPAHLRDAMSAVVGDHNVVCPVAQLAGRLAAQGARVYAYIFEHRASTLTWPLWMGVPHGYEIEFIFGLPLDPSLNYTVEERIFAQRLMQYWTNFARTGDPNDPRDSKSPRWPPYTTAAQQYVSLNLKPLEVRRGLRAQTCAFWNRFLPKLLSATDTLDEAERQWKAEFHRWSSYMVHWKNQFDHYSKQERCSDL

Row | Structure (SMILES) | IC50 (BChE) | pKa [1] | Selectivity for AChE (AChE) | IC50 (AChE) | logP [2]
1 | CN(C)CCOc1ccccc1NC(=O)C=Cc1ccccc1 [Compound 4d] | 11.2 ± 0.34 µM | 6.96 | 0.07 | 161 ± 2.19 µM | 2.78
2 | CCN(CC)CCOc1ccccc1NC(=O)C=Cc1ccccc1 [Compound 4e] | 6.99 ± 0.29 µM | 7.28 | 0.04 | 197 ± 6.81 µM | 2.81
3 | O=C(C=Cc1ccccc1)Nc1ccccc1OCCN1CCCCC1 [Compound 4f] | 1.16 ± 0.22 µM | 6.85 | 0.01 | 141 ± 7.01 µM | 2.17
4 | O=C(C=Cc1ccccc1)Nc1ccccc1OCCN1CCCC1 [Compound 4g] | 1.56 ± 0.42 µM | 7.33 | 0.01 | 170 ± 8.49 µM | 2.19
5 | CN(C)CCOc1cccc(NC(=O)C=Cc2ccccc2)c1 [Compound 5d] | 26.5 ± 0.56 µM | 6.51 | 1.30 | 20.5 ± 3.13 µM | 0.96
6 | CCN(CC)CCOc1cccc(NC(=O)C=Cc2ccccc2)c1 [Compound 5e] | 42.5 ± 0.67 µM | 7.16 | 0.86 | 49.4 ± 1.91 µM | 2.56
7 | O=C(C=Cc1ccccc1)Nc1cccc(OCCN2CCCCC2)c1 [Compound 5f] | 3.26 ± 0.26 µM | 6.99 | 0.16 | 20.5 ± 1.01 µM | 1.24
8 | O=C(C=Cc1ccccc1)Nc1cccc(OCCN2CCCC2)c1 [Compound 5g] | 12.9 ± 1.18 µM | 7.28 | 1.51 | 8.52 ± 1.23 µM | 2.28
9 | CN(C)CCOc1ccc(NC(=O)C=Cc2ccccc2)cc1 [Compound 6d] | 113 ± 1.36 µM | 7.18 | 22.8 | 4.98 ± 0.31 µM | 1.54
10 | CCN(CC)CCOc1ccc(NC(=O)C=Cc2ccccc2)cc1 [Compound 6e] | 44 ± 3.29 µM | 6.97 | 4.16 | 10.6 ± 0.43 µM | 1.22
11 | O=C(C=Cc1ccccc1)Nc1ccc(OCCN2CCCCC2)cc1 [Compound 6f] | 94.5 ± 8.74 µM | 7.29 |  | 4.35 ± 0.36 µM | 1.4
12 | CN(C)CCOc1ccccc1NC(=O)CCc1ccccc1 [Compound 10d] | 36.6 ± 1.38 µM | 7.19 | 0.13 | 285 ± 4.69 µM | 2.14
13 | CCN(CC)CCOc1ccccc1NC(=O)CCc1ccccc1 [Compound 10e] | 40.1 ± 1.29 µM | 7.23 |  | > 500 µM | 3.22
14 | O=C(CCc1ccccc1)Nc1ccccc1OCCN1CCCCC1 [Compound 10f] | 0.59 ± 0.09 µM | 7.02 | 0.002 | 250 ± 8.21 µM | 1.18
15 | O=C(CCc1ccccc1)Nc1ccccc1OCCN1CCCC1 [Compound 10g] | 1.87 ± 0.16 µM | 6.88 | 0.01 | 209 ± 2.33 µM | 1.3
16 | CN(C)CCOc1cccc(NC(=O)CCc2ccccc2)c1 [Compound 11d] | 15.5 ± 1.21 µM | 6.45 | 0.26 | 59.2 ± 3.34 µM | 1.19
17 | CCN(CC)CCOc1cccc(NC(=O)CCc2ccccc2)c1 [Compound 11e] | 8.23 ± 0.59 µM | 6.51 | 0.08 | 102 ± 3.36 µM | 2.23
18 | O=C(CCc1ccccc1)Nc1cccc(OCCN2CCCCC2)c1 [Compound 11f] | 64 ± 1.92 µM | 6.78 | 0.93 | 69 ± 2.64 µM | 3.22

Row | Structure (SMILES) | IC50 (BChE) | pKa [1] | Selectivity for AChE (AChE) | IC50 (AChE) | logP [2]
19 | O=C(CCc1ccccc1)Nc1cccc(OCCN2CCCC2)c1 [Compound 11g] | 84 ± 2.12 µM | 6.45 | 1.43 | 58.6 ± 3.85 µM | 2.58
20 | CN(C)CCOc1ccc(NC(=O)CCc2ccccc2)cc1 [Compound 12d] | 132 ± 5.21 µM | 7.26 | 2.82 | 46.8 ± 1.29 µM | 2.44
21 | CCN(CC)CCOc1ccc(NC(=O)CCc2ccccc2)cc1 [Compound 12e] | 212 ± 4.87 µM | 6.52 | 2.50 | 84.6 ± 6.1 µM | 2.58
22 | O=C(CCc1ccccc1)Nc1ccc(OCCN2CCCCC2)cc1 [Compound 12f] | 226 ± 5.78 µM | 7.13 | 6.60 | 34.3 ± 0.89 µM | 1.82
23 | O=C(CCc1ccccc1)Nc1ccc(OCCN2CCCC2)cc1 [Compound 12g] | 98.5 ± 1.09 µM | 6.8 |  | 24.4 ± 0.76 µM | 2.26
24 | C/C=C/C=C/C(=O)Nc1ccccc1OCCN(C)C [Compound 16d] | 34.1 ± 1.85 µM | 7.25 | 1.11 | 30.7 ± 2.34 µM | 0.63
25 | C/C=C/C=C/C(=O)Nc1ccccc1OCCN(CC)CC [Compound 16e] | 91.8 ± 1.45 µM | 7.53 |  | > 500 µM | 2.18
26 | C/C=C/C=C/C(=O)Nc1ccccc1OCCN1CCCCC1 [Compound 16f] | 27.7 ± 1.29 µM | 6.86 | 0.16 | 170 ± 4.11 µM | 0.67
27 | C/C=C/C=C/C(=O)Nc1ccccc1OCCN1CCCC1 [Compound 16g] | 21.9 ± 0.99 µM | 7.32 | 0.08 | 278 ± 4.58 µM | 0.97
28 | C/C=C/C=C/C(=O)Nc1cccc(OCCN(C)C)c1 [Compound 17d] | 50.43 ± 0.46 µM | 7.23 | 0.96 | 52.47 ± 0.39 µM | 0.99
29 | C/C=C/C=C/C(=O)Nc1cccc(OCCN(CC)CC)c1 [Compound 17e] | 79.5 ± 1.43 µM | 7.58 | 0.81 | 98.7 ± 1.89 µM | 1.72
30 | C/C=C/C=C/C(=O)Nc1cccc(OCCN2CCCCC2)c1 [Compound 17f] | 33.6 ± 1.59 µM | 7.17 | 0.76 | 44.2 ± 1.36 µM | 2.23
31 | C/C=C/C=C/C(=O)Nc1cccc(OCCN2CCCC2)c1 [Compound 17g] | 28.5 ± 1.24 µM | 7.06 | 1.51 | 18.8 ± 0.63 µM | 1.41
32 | C/C=C/C=C/C(=O)Nc1ccc(OCCN(C)C)cc1 [Compound 18d] | 222 ± 8.63 µM | 7.21 | 17.5 | 12.6 ± 0.89 µM | 1.79
33 | C/C=C/C=C/C(=O)Nc1ccc(OCCN(CC)CC)cc1 [Compound 18e] | 94.5 ± 4.26 µM | 7.16 | 0.50 | 189 ± 4.55 µM | 1.31
34 | C/C=C/C=C/C(=O)Nc1ccc(OCCN2CCCCC2)cc1 [Compound 18f] | 271 ± 4.56 µM | 7.06 | 22.1 | 12.3 ± 0.76 µM | 1.61
35 | C/C=C/C=C/C(=O)Nc1ccc(OCCN2CCCC2)cc1 [Compound 18g] | 118 ± 6.79 µM | 7.73 | 8.63 | 13.6 ± 1.24 µM | 1.18
36 | CCN(C)C(=O)Oc1cccc([C@H](C)N(C)C)c1 [Rivastigmine, reference compound] |  | 5.93 |  |  | 1.68
